The values below come from US20120095055A1, “HEXAHYDROCYCLOPENTYL[f]INDAZOLE 5-HYDROXYMETHYL ETHANOLS AND DERIVATIVES THEREOF AS SELECTIVE GLUCOCORTICOID RECEPTOR MODULATORS” (Merck Sharp & Dohme, Corp., priority 2009, published 2012).

For the experiment, the target named is T1, human GR (Homo sapiens, UniProt P04150).
T1 construct: naturally expresses the human GR; endogenous in cells
T1 sequence (P04150 1-777): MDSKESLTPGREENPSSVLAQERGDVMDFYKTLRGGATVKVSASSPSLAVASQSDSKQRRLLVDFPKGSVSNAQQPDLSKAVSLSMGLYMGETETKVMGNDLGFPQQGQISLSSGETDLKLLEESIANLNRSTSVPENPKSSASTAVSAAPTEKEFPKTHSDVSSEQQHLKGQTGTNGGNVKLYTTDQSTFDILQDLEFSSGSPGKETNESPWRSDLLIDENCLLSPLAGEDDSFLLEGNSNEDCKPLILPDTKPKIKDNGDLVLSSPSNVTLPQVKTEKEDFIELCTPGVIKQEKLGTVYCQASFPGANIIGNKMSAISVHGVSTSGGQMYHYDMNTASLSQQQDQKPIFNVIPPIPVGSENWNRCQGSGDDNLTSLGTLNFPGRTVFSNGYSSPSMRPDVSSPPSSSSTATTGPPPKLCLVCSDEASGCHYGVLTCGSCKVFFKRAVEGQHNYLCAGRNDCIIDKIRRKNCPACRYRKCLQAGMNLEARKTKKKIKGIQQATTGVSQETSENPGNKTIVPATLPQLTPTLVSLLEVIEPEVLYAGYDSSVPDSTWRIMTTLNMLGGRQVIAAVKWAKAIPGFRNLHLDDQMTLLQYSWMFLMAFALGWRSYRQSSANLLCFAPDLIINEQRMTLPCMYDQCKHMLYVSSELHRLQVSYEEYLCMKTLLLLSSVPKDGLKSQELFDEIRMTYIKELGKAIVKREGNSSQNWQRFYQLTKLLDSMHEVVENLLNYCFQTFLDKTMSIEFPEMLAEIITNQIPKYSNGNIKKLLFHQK
The experiment is described as follows: Transrepression Assay (GITAR), TNFα-β-lactamase reporter in U937 cells. The note with it: for Emax: U-937, activity repressed by 100 nM dexamethasone set as 100%; for EC50: inflection point (IP), TNFα promoter β-lactamase reporter, PMA/LPS; for Transrepression U937 Cells GITAR Emax (%): activity repressed by 100 nM dexamethasone set as 100%. In kind it is cell-based. From the text:
This assay assesses the ability of test compounds to control transcription from the TNFα-β-lactamase reporter gene in U937 cells, a human myelomonocytic leukemia cell line that naturally expresses the human GR. The assay measures compound dependent-repression of the TNFa promoter linked to a reporter gene.
The human U937 cells that had been stablely transfected with the TNF-α promoter driving β-lactamase are used for this assay. U937 cells contain an endogenous glucocorticoid receptor (GR). Cells are maintained in RPMI 1640 Growth medium (Gibco Cat#11875-093) containing 25 mM HEPES, 10% FBS, 2 mM L-Glutamine, 1 mM Sodium pyruvate, 25 μg/ml Gentamicin (Gibco Cat#15710-064), 1:1000 2-Mercaptoethanol (Gibco Cat#21985-023) and 0.8 mg/ml G418 (Gibco Cat#10131-027). The density of the cells in the flask needs to be about 1×106-3×10^6/ml at the time of harvest. Usually, the cells are split to 1.2˜1.4×10^5/ml (1:10) 3 days prior to the assay. 50,000 cells/well are plated in 96 well black-walled plates the day of assay. Test compounds are added 10 μL/well, and cells are incubated at 37° C. for 30˜45 min. For assaying compounds, first dilute 1:10 in DMSO to make 1 mM, then further dilute 1:100 in medium to make 10× stock prior to adding to the cells. Add 50 ng/ml PMA (Sigma, cat# P8139) 10 μL/well to a final concentration 5 ng/ml, and 1 μg/ml LPS (Sigma, cat# L4130) 10 μL/well to a final concentration 100 ng/ml. Incubate cells at 37° C. overnight for ˜18 hr. PMA is stored frozen as 100 μg/ml stock in DMSO. Dilute 1:10 in DMSO for a working stock of 10 μg/ml and store at −20 C. For assaying, dilute the 10 μg/ml working stock 1:200 in medium to make a 10× solution (50 ng/ml). Store frozen LPS at 1 mg/ml in PBS, dilute 1:1000 in medium to make 10× (1 μg/ml) for the assay. Add 6× loading buffer (CCF2-AM) 20 μL/well, and incubate at room temperature for 70˜90 min. […] The activity repressed by 100 nM dexamethasone alone is set as 100% activity.

`C[C@]12Cc3cnn(-c4ccc(F)cc4)c3C=C1CC[C@@]2(CO)CC(O)C1CC1` (single isomer, unassigned) [Example 20a, 1-cyclopropyl-2-[(4αS)-1-(4-fluorophenyl)-5-(hydroxymethyl)-4α-methyl-1,4,4α,5,6,7-hexahydrocyclopenta[f]indazol-5-yl]ethanol] gave an Emax of 79.9% and an EC50 of 133 nM.
In the case of `C[C@]12Cc3cnn(-c4ccc(F)cc4)c3C=C1CC[C@@]2(CO)CC(O)C1CC1` (single isomer, unassigned) [Example 20b, 1-cyclopropyl-2-[(4αS)-1-(4-fluorophenyl)-5-(hydroxymethyl)-4α-methyl-1,4,4α,5,6,7-hexahydrocyclopenta[f]indazol-5-yl]ethanol], the “Transrepression U937 Cells GITAR Emax (%)” value was determined as 72.0% and the EC50 was 573 nM.
`COc1cccnc1C(O)C[C@]1(CO)CCC2=Cc3c(cnn3-c3ccc(F)cc3)C[C@@]21C` (single isomer, unassigned) [Example 21a] registered an Emax of 85.4% and an EC50 of 101 nM.
As for `COc1cccnc1C(O)C[C@]1(CO)CCC2=Cc3c(cnn3-c3ccc(F)cc3)C[C@@]21C` (single isomer, unassigned) [Example 21b], the “Transrepression U937 Cells GITAR Emax (%)” value was 91.3% and the EC50 worked out at 18.7 nM.
As for `C[C@]12Cc3cnn(-c4ccc(F)cc4)c3C=C1CC[C@@]2(CO)CC(O)c1ccc(F)cn1` (single isomer, unassigned) [Example 22a], the Emax was 90.9% and the EC50 came out at 18.7 nM.
Turning to `C[C@]12Cc3cnn(-c4ccc(F)cc4)c3C=C1CC[C@@]2(CO)CC(O)c1ccc(F)cn1` (single isomer, unassigned) [Example 22b], the “Transrepression U937 Cells GITAR Emax (%)” value is on record as 90.6% and the EC50 was determined as 14.1 nM.
`C[C@]12Cc3cnn(-c4ccccc4)c3C=C1CC[C@@]2(CO)CC(O)c1ccccn1` (single isomer, unassigned) [Example 23a] registered an Emax of 82.6% and an EC50 of 22.8 nM.
In the case of `C[C@]12Cc3cnn(-c4ccccc4)c3C=C1CC[C@@]2(CO)CC(O)c1ccccn1` (single isomer, unassigned) [Example 23b], the “Transrepression U937 Cells GITAR Emax (%)” value worked out at 83.7% and the EC50 came to 49.6 nM.
Turning to `COc1ccc(C(O)C[C@]2(CO)CCC3=Cc4c(cnn4-c4ccc(F)cc4)C[C@@]32C)nc1` (single isomer, unassigned) [Example 24a], the Emax amounted to 63% and the EC50 amounted to 447 nM.
For the compound `COc1ccc(C(O)C[C@]2(CO)CCC3=Cc4c(cnn4-c4ccc(F)cc4)C[C@@]32C)nc1` (single isomer, unassigned) [Example 24b], the “Transrepression U937 Cells GITAR Emax (%)” value was 57.9% and the EC50 stood at 376 nM.
As to `CC(O)(C[C@]1(CO)CCC2=Cc3c(cnn3-c3ccc(F)cc3)C[C@@]21C)c1cccnc1` (single isomer, unassigned) [Example 25a], the Emax turned out to be 61.3% and the EC50 is 293 nM.
Turning to `CC(O)(C[C@]1(CO)CCC2=Cc3c(cnn3-c3ccc(F)cc3)C[C@@]21C)c1cccnc1` (single isomer, unassigned) [Example 25b], the “Transrepression U937 Cells GITAR Emax (%)” value is given as 69.8% and the EC50 is 186 nM.
In the same order, the values of `COc1cccnc1C(O)C[C@]1(CO)CCC2=Cc3c(cnn3-c3cccc(F)c3)C[C@@]21C` (single isomer, unassigned) [Example 26a] are 82.1% and 80.8 nM.
In the same order, the values of `COc1cccnc1C(O)C[C@]1(CO)CCC2=Cc3c(cnn3-c3cccc(F)c3)C[C@@]21C` (single isomer, unassigned) [Example 26b] are 51.8% and 1510 nM.
Turning to `C[C@]12Cc3cnn(-c4cccc(F)c4)c3C=C1CC[C@@]2(CO)CC(O)c1cccnc1` (single isomer, unassigned) [Example 27a], the Emax stood at 64.2% and the midpoint of the response, the EC50, lay at 598 nM.
For `C[C@]12Cc3cnn(-c4cccc(F)c4)c3C=C1CC[C@@]2(CO)CC(O)c1cccnc1` (single isomer, unassigned) [Example 27b], the “Transrepression U937 Cells GITAR Emax (%)” value is reported as 71.9% and the EC50 is 334 nM.
As for `C[C@]12Cc3cnn(-c4ccc(F)cc4)c3C=C1CC[C@@]2(CO)CC(O)C(F)(F)F` (single isomer, unassigned) [Example 28a], the Emax stood at 81.2% and the EC50 worked out at 54.3 nM.
With `C[C@]12Cc3cnn(-c4ccc(F)cc4)c3C=C1CC[C@@]2(CO)CC(O)C(F)(F)F` (single isomer, unassigned) [Example 28b], the “Transrepression U937 Cells GITAR Emax (%)” value was determined as 80.2% and the midpoint of the response, the EC50, lay at 90.9 nM.
Compound `C[C@]12Cc3cnn(-c4ccccc4)c3C=C1CC[C@@]2(CO)CC(O)c1cccnc1` (single isomer, unassigned) [Example 29a] returned an Emax of 66.6% and an EC50 of 176 nM.
For `C[C@]12Cc3cnn(-c4ccccc4)c3C=C1CC[C@@]2(CO)CC(O)c1cccnc1` (single isomer, unassigned) [Example 29b], the “Transrepression U937 Cells GITAR Emax (%)” value stood at 60.9% and a half-maximal response (EC50) required 103 nM.
As to `C[C@]12Cc3cnn(-c4ccc(F)cc4)c3C=C1CC[C@@]2(CO)CC(O)c1ccccc1F` (stereo partly drawn) [Example 4, 1-(2-fluorophenyl)-2-[(4αS,5R)-1-(4-fluorophenyl)-5-(hydroxymethyl)-4α-methyl-1,4,4α,5,6,7-hexahydrocyclopenta[f]indazol-5-yl]ethanol], the Emax is 104% and a half-maximal response (EC50) required 28.2 nM.
`C[C@]12Cc3cnn(-c4ccc(F)cc4)c3C=C1CC[C@@]2(CO)CC(O)c1cccc(Cl)c1` (stereo partly drawn) [Example 8, 1-(3-chlorophenyl)-2-[(4αS,5R)-1-(4-fluorophenyl)-5-(hydroxymethyl)-4α-methyl-1,4,4α,5,6,7-hexahydrocyclopenta[f]indazol-5-yl]ethanol] had an Emax of 89.9% and an EC50 of 21.4 nM.
`C[C@]12Cc3cnn(-c4ccc(F)cc4)c3C=C1CC[C@@]2(CO)CC(O)c1cc(F)cc(F)c1` (stereo partly drawn) [Example 9, 1-(3,5-difluorophenyl)-2-[(4αS,5R)-1-(4-fluorophenyl)-5-(hydroxymethyl)-4α-methyl-1,4,4α,5,6,7-hexahydrocyclopenta[f]indazol-5-yl]ethanol] came in with an Emax of 102% and an EC50 of 0.6 nM.
As for `C[C@]12Cc3cnn(-c4ccc(F)cc4)c3C=C1CC[C@@]2(CO)CC1OC(=O)c2ccccc21` (stereo partly drawn) [Example 11, 3-{[(4αS,5R)-1-(4-fluorophenyl)-5-(hydroxymethyl)-4α-methyl-1,4,4α,5,6,7,7a,8-octahydrocyclopenta[f]indazol-5-yl]methyl}-2-benzofuran-1(3H)-one], the Emax is 84.6% and it took 241 nM to reach a half-maximal effect (EC50).
Compound `Cc1ccc(C(O)C[C@]2(CO)CCC3=Cc4c(cnn4-c4ccc(F)cc4)C[C@@]32C)nc1` (stereo partly drawn) [Example 16, 2-[(4αS,5R)-1-(4-fluorophenyl)-5-(hydroxymethyl)-4α-methyl-1,4,4α,5,6,7-hexahydrocyclopenta[f]indazol-5-yl]-1-(5-methylpyridin-2-yl)ethanol] returned an Emax of 85.4% and an EC50 of 21.4 nM.
